The values that follow come from US8940744B2, “Pyrazolopyrimidine compounds as kinase inhibitors” (Principia Biopharma Inc., priority 2012, dated 2015).

Sequence of human recombinant Btk (Q06187 whole entry): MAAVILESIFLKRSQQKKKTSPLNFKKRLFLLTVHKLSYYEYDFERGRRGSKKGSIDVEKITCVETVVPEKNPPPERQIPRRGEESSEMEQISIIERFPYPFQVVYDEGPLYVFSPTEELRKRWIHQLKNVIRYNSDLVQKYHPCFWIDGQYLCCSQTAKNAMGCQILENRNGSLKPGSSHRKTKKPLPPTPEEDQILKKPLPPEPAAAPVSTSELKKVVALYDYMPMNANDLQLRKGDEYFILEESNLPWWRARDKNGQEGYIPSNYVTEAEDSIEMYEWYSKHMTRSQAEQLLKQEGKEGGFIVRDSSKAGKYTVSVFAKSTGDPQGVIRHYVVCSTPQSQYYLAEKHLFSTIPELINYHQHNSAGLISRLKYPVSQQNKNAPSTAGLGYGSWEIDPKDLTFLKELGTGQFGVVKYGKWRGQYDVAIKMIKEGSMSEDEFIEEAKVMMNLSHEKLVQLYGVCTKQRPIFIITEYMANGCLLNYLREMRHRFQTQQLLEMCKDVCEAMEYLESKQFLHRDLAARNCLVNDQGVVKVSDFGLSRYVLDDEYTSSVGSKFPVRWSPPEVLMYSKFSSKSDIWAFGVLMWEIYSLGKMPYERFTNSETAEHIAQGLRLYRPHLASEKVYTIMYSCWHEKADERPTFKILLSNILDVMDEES
Sequence of protein target (Q06187 whole entry): as above

The first assay addresses human recombinant Btk (Homo sapiens (Human), UniProt Q06187). As to the kind of experiment: Btk Enzymatic Activity Assay (Caliper-based kinase assay). In kind it is biochemical.
Conditions: not given
How it is done: A Caliper-based kinase assay (Caliper Life Sciences, Hopkinton, Mass.) was used to measure inhibition of Btk kinase activity of a compound of the present disclosure. […] The reaction was then terminated with EDTA, final concentration 20 mM and the phosphorylated reaction product was quantified on a Caliper Desktop Profiler (Caliper LabChip 3000). […] This value is presented as the IC50.
For `CC(C)(C=C(C#N)C(=O)N1CCC[C@H]1Cn1nc(-c2ccc(Oc3ccccc3)cc2F)c2c(N)ncnc21)N1CC2(COC2)C1` [Example 19a, (S)-2-(2-((4-amino-3-(2-fluoro-4-phenoxyphenyl)-1H-pyrazolo[3,4-d]pyrimidin-1-yl)methyl)pyrrolidine-1-carbonyl)-4-methyl-4-(2-oxa-6-azaspiro[3.3]heptan-6-yl)pent-2-enenitrile], the half-maximal inhibitory concentration (IC50) stood at 5.6 nM.

For the compound `CCN1CCN(C(C)(C)C=C(C#N)C(=O)N2CCC[C@H]2Cn2nc(-c3ccc(Oc4ccccc4)cc3F)c3c(N)ncnc32)CC1` [Example 8A, 2-[(2S)-2-[[4-amino-3-(2-fluoro-4-phenoxyphenyl)pyrazolo[3,4-d]pyrimidin-1-yl]-methyl]pyrrolidine-1-carbonyl]-4-methyl-4-(4-ethylpiperazin-1-yl)pent-2-enenitrile], the IC50 was 0.9 nM.

For the compound `CN1CCN(C(C)(C)C=C(C#N)C(=O)N2CCC[C@H]2Cn2nc(-c3ccc(Oc4ccccc4)cc3F)c3c(N)ncnc32)CC1` [Example 8, 2-[(2S)-2-[[4-amino-3-(2-fluoro-4-phenoxyphenyl)pyrazolo[3,4-d]pyrimidin-1-yl]-methyl]pyrrolidine-1-carbonyl]-4-methyl-4-(4-methylpiperazin-1-yl)pent-2-enenitrile], the IC50 was 3.8 nM.

Staying with this assay, now noted: human recombinant Btk 0.5 nM, ATP 16 μM, room temperature 3 h.
`CC(C)(C=C(C#N)C(=O)N1CCC[C@H]1Cn1nc(-c2ccc(Oc3ccccc3)cc2F)c2c(N)ncnc21)N1CCNCC1` [Example 9, 2-[(2S)-2-[[4-amino-3-(2-fluoro-4-phenoxy-phenyl)pyrazolo[3,4-d]pyrimidin-1-yl]methyl]pyrrolidine-1-carbonyl]-4-methyl-4-piperazin-1-yl-pent-2-enenitrile]: the IC50 was 4.7 nM.

As for `CC(C)(C=C(C#N)C(=O)N1CCC[C@@H](n2nc(-c3ccc(Oc4ccccc4)cc3F)c3c(N)ncnc32)C1)N1CC(O)C1` [Example 7, 2-((R)-3-(4-amino-3-(2-fluoro-4-phenoxyphenyl)-1H-pyrazolo[3,4-d]pyrimidin-1-yl)piperidine-1-carbonyl)-4-(3-hydroxyazetidin-1-yl)-4-methylpent-2-enenitrile], the IC50 turned out to be 0.9 nM.

Regarding `CC(C)(C=C(C#N)C(=O)N1CCC[C@H]1Cn1nc(-c2ccc(Oc3ccccc3)cc2F)c2c(N)ncnc21)CN1CCOCC1` [Example 30, (S)-2-(2-((4-amino-3-(2-fluoro-4-phenoxyphenyl)-1H-pyrazolo[3,4-d]pyrimidin-1-yl)methyl)pyrrolidine-1-carbonyl)-4,4-dimethyl-5-morpholinopent-2-enenitrile], the IC50 was 5.2 nM.

As for `CC(C)N1CCN(C(C)(C)C=C(C#N)C(=O)N2CCC[C@@H](n3nc(-c4ccc(Oc5ccccc5)cc4F)c4c(N)ncnc43)C2)CC1` [Example 21, (R)-2-(3-(4-amino-3-(2-fluoro-4-phenoxyphenyl)-1H-pyrazolo[3,4-d]pyrimidin-1-yl)piperidine-1-carbonyl)-4-(4-isopropylpiperazin-1-yl)-4-methylpent-2-enenitrile], the half-maximal inhibitory concentration (IC50) was 0.7 nM.

`CC(C)(C=C(C#N)C(=O)N1CCC1Cn1nc(-c2ccc(Oc3ccccc3)cc2F)c2c(N)ncnc21)N1CCOCC1` (stereo not shown) [Example 15, 2-[2-[[4-amino-3-(2-fluoro-4-phenoxy-phenyl)pyrazolo[3,4-d]pyrimidin-1-yl]methyl]azetidine-1-carbonyl]-4-methyl-4-morpholino-pent-2-enenitrile]: the IC50 worked out at 4.1 nM.

Turning to `CCN1CCN(C(C)(C)C=C(C#N)C(=O)N2CCC[C@@H](n3nc(-c4ccc(Oc5ccccc5)cc4F)c4c(N)ncnc43)C2)CC1` [Example 20, 2-[(3R)-3-[4-amino-3-(2-fluoro-4-phenoxy-phenyl)pyrazolo[3,4-d]-pyrimidin-1-yl]piperidine-1-carbonyl]-4-(4-ethylpiperazin-1-yl)-4-methyl-pent-2-enenitrile], the 50% inhibitory concentration (IC50) is 0.9 nM.

With `CCN(C1COC1)C(C)(C)C=C(C#N)C(=O)N1CCC[C@@H](n2nc(-c3ccc(Oc4ccccc4)cc3F)c3c(N)ncnc32)C1` [Example 13a, (R)-2-(3-(4-amino-3-(2-fluoro-4-phenoxyphenyl)-1H-pyrazolo[3,4-d]pyrimidin-1-yl)piperidine-1-carbonyl)-4-(ethyl(oxetan-3-yl)amino)-4-methylpent-2-enenitrile], the IC50 is 0.9 nM.

As for `CN(C1COC1)C(C)(C)C=C(C#N)C(=O)N1CCC[C@H]1Cn1nc(-c2ccc(Oc3ccccc3)cc2F)c2c(N)ncnc21` [Example 10, 2-[(2S)-2-[[4-amino-3-(2-fluoro-4-phenoxy-phenyl)pyrazolo[3,4-d]pyrimidin-1-yl]methyl]pyrrolidine-1-carbonyl]-4-methyl-4-[methyl(oxetan-3-yl)amino]pent-2-enenitrile], the IC50 was 2.1 nM.

As to `CC(C)(C=C(C#N)C(=O)N1CCC[C@@H](n2nc(-c3ccc(Oc4ccccc4)cc3F)c3c(N)ncnc32)C1)N1CCN(S(C)(=O)=O)CC1` [Example 25, (R)-2-(3-(4-amino-3-(2-fluoro-4-phenoxyphenyl)-1H-pyrazolo[3,4-d]pyrimidin-1-yl)piperidine-1-carbonyl)-4-methyl-4-(4-(methylsulfonyl)piperazin-1-yl)pent-2-enenitrile], the IC50 was 1.4 nM.

For the compound `CCN1CCN(C(C)(C)C=C(C#N)C(=O)N2CCC[C@@H](n3nc(-c4ccc(Oc5ccccc5)cc4F)c4c(N)ncnc43)C2)CC1=O` [Example 34, (R)-2-(3-(4-amino-3-(2-fluoro-4-phenoxyphenyl)-1H-pyrazolo[3,4-d]pyrimidin-1-yl)piperidine-1-carbonyl)-4-(4-ethyl-3-oxopiperazin-1-yl)-4-methylpent-2-enenitrile], the IC50 amounted to 1.3 nM.

Turning to `CC(C)(C=C(C#N)C(=O)N1CCC[C@H]1Cn1nc(-c2ccc(Oc3ccccc3)cc2F)c2c(N)ncnc21)N1CCCC1` [Example 5, (S)-2-(2-((4-amino-3-(2-fluoro-4-phenoxyphenyl)-1H-pyrazolo[3,4-d]-pyrimidin-1-yl)-methyl)pyrrolidine-1-carbonyl)-4-methyl-4-(pyrrolidin-1-yl)pent-2-enenitrile], the IC50 is 1.9 nM.

For `CN(C1COC1)C(C)(C)C=C(C#N)C(=O)N1CCC[C@@H](n2nc(-c3ccc(Oc4ccccc4)cc3F)c3c(N)ncnc32)C1` [Example 13, 2-[(3R)-3-[4-amino-3-(2-fluoro-4-phenoxy-phenyl)pyrazolo[3,4-d]pyrimidin-1-yl]piperidine-1-carbonyl]-4-methyl-4-[methyl(oxetan-3-yl)amino]pent-2-enenitrile], the IC50 worked out at 0.6 nM.

As to `CC(C)(C=C(C#N)C(=O)N1CCC[C@@H](n2nc(-c3ccc(Oc4ccccc4)cc3F)c3c(N)ncnc32)C1)N1CCC(O)CC1` [Example 18, (R)-2-(3-(4-amino-3-(2-fluoro-4-phenoxyphenyl)-1H-pyrazolo[3,4-d]pyrimidin-1-yl)piperidine-1-carbonyl)-4-(4-hydroxypiperidin-1-yl)-4-methylpent-2-enenitrile], the IC50 worked out at 0.7 nM.

For `CC(C)(/C=C(\C#N)C(=O)N1CCC[C@@H](n2nc(-c3ccc(Oc4ccccc4)cc3F)c3c(N)ncnc32)C1)N1CC2(COC2)C1` [Example 19, 2-[(3R)-3-[4-amino-3-(2-fluoro-4-phenoxy-phenyl)pyrazolo[3,4-d]pyrimidin-1-yl]piperidine-1-carbonyl]-4-methyl-4-(6-oxa-2-azaspiro[3.3]heptan-2-yl)pent-2-enenitrile], the IC50 turned out to be 1.5 nM.

The next assay deals with protein target (Homo sapiens (Human), UniProt Q06187). As to the kind of experiment: Reversibility of binding (compound in solution before and after target perturbation, HPLC-MS/MS). The following applies: after 5 M guanidine hydrochloride denaturation and trypsin digestion. On the procedure:
The following approach was developed to differentiate compounds that form irreversible covalent bond with their targets, such as non-cyano containing acrylamide compounds, from compound that form reversible covalent bond i.e., compounds and/or pharmaceutically acceptable salts of the present disclosure. […] The reactions were then treated with perturbations including both denaturation with 5 M guanidine hydrochloride and digestion with trypsin, disrupting proper folding of the target. […] The concentration of compound in solution was assessed both preceding and following perturbation using high performance liquid chromatography (HPLC) coupled to tandem mass spectrometry.
With `CN(C1COC1)C(C)(C)C=C(C#N)C(=O)N1CCC[C@H]1Cn1nc(-c2ccc(Oc3ccccc3)cc2F)c2c(N)ncnc21` [Example 10, 2-[(2S)-2-[[4-amino-3-(2-fluoro-4-phenoxy-phenyl)pyrazolo[3,4-d]pyrimidin-1-yl]methyl]pyrrolidine-1-carbonyl]-4-methyl-4-[methyl(oxetan-3-yl)amino]pent-2-enenitrile], the “Compound in solution in the denatured or digested state?” value is “yes”.

The same assay, now with this note: native (folded) target, target in excess of compound.
Regarding `CN(C1COC1)C(C)(C)C=C(C#N)C(=O)N1CCC[C@H]1Cn1nc(-c2ccc(Oc3ccccc3)cc2F)c2c(N)ncnc21` [Example 10, 2-[(2S)-2-[[4-amino-3-(2-fluoro-4-phenoxy-phenyl)pyrazolo[3,4-d]pyrimidin-1-yl]methyl]pyrrolidine-1-carbonyl]-4-methyl-4-[methyl(oxetan-3-yl)amino]pent-2-enenitrile], the “Compound in solution in the native state?” value is given as “no”.
